Reference: publication PMC12124671, “Drug repurposing reveals posaconazole as a CYP11A1 inhibitor enhancing anti-tumor immunity” (iScience, 2025)

Tests used:
CYP11A1 [1] = biological target: T1, CYP11A1 (Mus musculus, UniProt Q9QZ82); assay: pregnenolone ELISA in murine Th2 cells (endogenous Cyp11a1), reference inhibitor, […] h dose response; type: cell-based
T1 sequence (Q9QZ82 37-526): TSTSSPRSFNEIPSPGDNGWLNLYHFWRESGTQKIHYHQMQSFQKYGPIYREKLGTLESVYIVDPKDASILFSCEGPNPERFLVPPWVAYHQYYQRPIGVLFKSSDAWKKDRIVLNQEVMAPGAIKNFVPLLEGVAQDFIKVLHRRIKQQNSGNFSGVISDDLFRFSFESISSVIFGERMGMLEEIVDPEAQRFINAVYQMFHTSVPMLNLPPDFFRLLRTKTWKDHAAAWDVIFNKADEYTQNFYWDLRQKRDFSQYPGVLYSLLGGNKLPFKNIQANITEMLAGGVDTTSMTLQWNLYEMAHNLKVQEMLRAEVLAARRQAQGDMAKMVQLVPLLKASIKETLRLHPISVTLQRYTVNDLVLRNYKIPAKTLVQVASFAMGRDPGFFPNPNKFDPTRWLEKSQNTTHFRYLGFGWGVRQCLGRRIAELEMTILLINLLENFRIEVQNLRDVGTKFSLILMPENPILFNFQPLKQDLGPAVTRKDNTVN

CYP11A1 [2] = biological target: T1, CYP11A1; assay: pregnenolone ELISA in murine Th2 cells (endogenous Cyp11a1), dose response; type: cell-based

Row | SMILES | IC50 (CYP11A1 [1]) [nM] | IC50 (CYP11A1 [2]) [nM]
1 | CCC1(c2ccc(N)cc2)CCC(=O)NC1=O (centres unmarked) [aminoglutethimide] | 1080 | –
2 | CC[C@@H]([C@H](C)O)n1ncn(-c2ccc(N3CCN(c4ccc(OC[C@@H]5CO[C@@](Cn6cncn6)(c6ccc(F)cc6F)C5)cc4)CC3)cc2)c1=O [posaconazole] | – | 218
